Laboratory results as given in ChEMBL document CHEMBL5303573, “Mapping human microbiome drug metabolism by gut bacteria and their genes” (Nature, 2019).

Tests used:
[1] = anaerostipes sp., 12 h, 2 µM
Description: The drug is tested on Anaerostipes sp. strain: fecal isolate for biotransformation. The drug concentrations were measured before and after a 12-h incubation by liquid-chromatography-coupled mass spectrometry (LC–MS)

[2] = parabacteroides johnsonii, 12 h, 2 µM
Description: The drug is tested on Parabacteroides johnsonii strain: DSM18315 for biotransformation. The drug concentrations were measured before and after a 12-h incubation by liquid-chromatography-coupled mass spectrometry (LC–MS)

[3] = The drug is tested on Clostridium symbiosum strain: ATCC14940 for biotransformation. The drug concentrations were measured before and after a 12-h incubation by liquid-chromatography-coupled mass spectrometry (LC–MS); conditions: 2 µM
[4] = The drug is tested on Clostridium sporogenes strain: ATCC15579 for biotransformation. The drug concentrations were measured before and after a 12-h incubation by liquid-chromatography-coupled mass spectrometry (LC–MS); conditions: 2 µM
[5] = bacteroides eggerthii, 12 h, 2 µM
Description: The drug is tested on Bacteroides eggerthii strain: DSM20697 for biotransformation. The drug concentrations were measured before and after a 12-h incubation by liquid-chromatography-coupled mass spectrometry (LC–MS)

[6] = The drug is tested on Anaerococcus hydrogenalis strain: DSM7454 for biotransformation. The drug concentrations were measured before and after a 12-h incubation by liquid-chromatography-coupled mass spectrometry (LC–MS); conditions: 2 µM
[7] = The drug is tested on Parabacteroides merdae strain: ATCC43184 for biotransformation. The drug concentrations were measured before and after a 12-h incubation by liquid-chromatography-coupled mass spectrometry (LC–MS); conditions: 2 µM
[8] = bifidobacterium adolescentis, 12 h, 2 µM
Description: The drug is tested on Bifidobacterium adolescentis strain: ATCC 15703 for biotransformation. The drug concentrations were measured before and after a 12-h incubation by liquid-chromatography-coupled mass spectrometry (LC–MS)

[9] = The drug is tested on Clostridium scindens strain: ATCC35704 for biotransformation. The drug concentrations were measured before and after a 12-h incubation by liquid-chromatography-coupled mass spectrometry (LC–MS); conditions: 2 µM
[10] = segatella copri, 12 h, 2 µM
Description: The drug is tested on Prevotella copri strain: DSM18205 for biotransformation. The drug concentrations were measured before and after a 12-h incubation by liquid-chromatography-coupled mass spectrometry (LC–MS)

[11] = The drug is tested on Collinsella aerofaciens strain: ATCC25986 for biotransformation. The drug concentrations were measured before and after a 12-h incubation by liquid-chromatography-coupled mass spectrometry (LC–MS); conditions: 2 µM
[12] = The drug is tested on Ruminococcus torques strain: ATCC27756 for biotransformation. The drug concentrations were measured before and after a 12-h incubation by liquid-chromatography-coupled mass spectrometry (LC–MS); format: ADME; design: dose 2 uM, timepoint 0 vs 12 hours; conditions: 2 µM
[13] = The drug is tested on Alistipes indistinctus strain: DSM22520 for biotransformation. The drug concentrations were measured before and after a 12-h incubation by liquid-chromatography-coupled mass spectrometry (LC–MS); conditions: 2 µM
[14] = The drug is tested on Bacteroides fragilis strain: HMW615 for biotransformation. The drug concentrations were measured before and after a 12-h incubation by liquid-chromatography-coupled mass spectrometry (LC–MS); conditions: 2 µM
[15] = The drug is tested on Bacteroides ovatus strain: ATCC8483 for biotransformation. The drug concentrations were measured before and after a 12-h incubation by liquid-chromatography-coupled mass spectrometry (LC–MS); conditions: 2 µM
[16] = The drug is tested on Bacteroides fragilis strain: HMW610 for biotransformation. The drug concentrations were measured before and after a 12-h incubation by liquid-chromatography-coupled mass spectrometry (LC–MS); conditions: 2 µM
[17] = The drug is tested on Anaerotruncus colihominis strain: DSM17241 for biotransformation. The drug concentrations were measured before and after a 12-h incubation by liquid-chromatography-coupled mass spectrometry (LC–MS); conditions: 2 µM
[18] = The drug is tested on Bacteroides finegoldii strain: DSM17565 for biotransformation. The drug concentrations were measured before and after a 12-h incubation by liquid-chromatography-coupled mass spectrometry (LC–MS); conditions: 2 µM
[19] = enterocloster bolteae, 12 h, 2 µM
Description: The drug is tested on Clostridium bolteae strain: ATCCBAA-613 for biotransformation. The drug concentrations were measured before and after a 12-h incubation by liquid-chromatography-coupled mass spectrometry (LC–MS)

[20] = roseburia intestinalis, 12 h, 2 µM
Description: The drug is tested on Roseburia intestinalis strain: L1-82 for biotransformation. The drug concentrations were measured before and after a 12-h incubation by liquid-chromatography-coupled mass spectrometry (LC–MS)

Bacterial Biotransformation [1] | Bacterial Biotransformation [2] | Bacterial Biotransformation [3] | Bacterial Biotransformation [4] | Bacterial Biotransformation [5] | Bacterial Biotransformation [6] | Bacterial Biotransformation [7] | Bacterial Biotransformation [8] | Bacterial Biotransformation [9] | Bacterial Biotransformation [10] | Bacterial Biotransformation [11] | Bacterial Biotransformation [12] | Bacterial Biotransformation [13] | Bacterial Biotransformation [14] | Bacterial Biotransformation [15] | Bacterial Biotransformation [16] | Bacterial Biotransformation [17] | Bacterial Biotransformation [18] | Bacterial Biotransformation [19] | Bacterial Biotransformation [20] | Structure (SMILES)
Compound NOT metabolized | Compound NOT metabolized | Compound NOT metabolized | Compound NOT metabolized | Compound NOT metabolized | Compound NOT metabolized | Compound NOT metabolized | Compound NOT metabolized | Compound NOT metabolized | Compound NOT metabolized | Compound NOT metabolized | Compound NOT metabolized | Compound NOT metabolized | Compound metabolized | Compound NOT metabolized | Compound metabolized | Compound NOT metabolized | Compound metabolized | Compound NOT metabolized | – | CCCCC(=O)N(Cc1ccc(-c2ccccc2-c2nnn[nH]2)cc1)[C@H](C(=O)O)C(C)C
Compound NOT metabolized | Compound NOT metabolized | Compound NOT metabolized | Compound NOT metabolized | Compound NOT metabolized | Compound NOT metabolized | Compound NOT metabolized | Compound NOT metabolized | Compound NOT metabolized | Compound NOT metabolized | Compound NOT metabolized | Compound NOT metabolized | Compound NOT metabolized | Compound NOT metabolized | Compound NOT metabolized | Compound NOT metabolized | Compound NOT metabolized | Compound NOT metabolized | Compound NOT metabolized | Compound NOT metabolized | CCc1nc(N)nc(N)c1-c1ccc(Cl)cc1 [PYRIMETHAMINE]
Compound NOT metabolized | Compound NOT metabolized | – | Compound NOT metabolized | Compound NOT metabolized | Compound NOT metabolized | Compound NOT metabolized | Compound NOT metabolized | – | Compound NOT metabolized | Compound NOT metabolized | Compound NOT metabolized | Compound NOT metabolized | Compound NOT metabolized | Compound NOT metabolized | Compound NOT metabolized | Compound NOT metabolized | – | Compound NOT metabolized | Compound NOT metabolized | COC(=O)[C@H]1[C@H]2C[C@@H]3c4[nH]c5cc(OC)ccc5c4CCN3C[C@H]2C[C@@H](OC(=O)c2cc(OC)c(OC)c(OC)c2)[C@@H]1OC [RESERPINE]
Compound NOT metabolized | Compound NOT metabolized | Compound NOT metabolized | Compound NOT metabolized | – | Compound NOT metabolized | Compound NOT metabolized | Compound NOT metabolized | Compound NOT metabolized | – | Compound NOT metabolized | Compound NOT metabolized | Compound NOT metabolized | Compound NOT metabolized | Compound NOT metabolized | Compound NOT metabolized | Compound NOT metabolized | Compound NOT metabolized | Compound NOT metabolized | Compound NOT metabolized | CCN(CC)CCNC(=O)c1cc(S(C)(=O)=O)ccc1OC [TIAPRIDE]
Compound NOT metabolized | Compound NOT metabolized | Compound NOT metabolized | Compound NOT metabolized | Compound NOT metabolized | Compound NOT metabolized | Compound NOT metabolized | Compound NOT metabolized | Compound NOT metabolized | Compound NOT metabolized | Compound NOT metabolized | Compound NOT metabolized | Compound NOT metabolized | Compound NOT metabolized | Compound NOT metabolized | Compound NOT metabolized | Compound NOT metabolized | Compound NOT metabolized | Compound NOT metabolized | Compound NOT metabolized | Cc1ccc(/C(=C\CN2CCCC2)c2ccccn2)cc1 [TRIPROLIDINE]
